Data set [1] relates to Nucleic Acid. In words: Inhibition of miR-4644 in human MCF7 cells assessed as reduction in luminescence at 4 uM after 24 hrs by luciferase reporter gene assay relative to control. Format: cell-based. (In general: In a reporter assay the amount or activity of a reporter protein is the signal.)
The subject of data set [2] is Nucleic Acid. In words: Inhibition of miR-4644 in human HeLa cells assessed as reduction in luminescence at 4 uM after 24 hrs by luciferase reporter gene assay relative to control. Type of data set: cell-based.
Data set [3] has as its system Nucleic Acid. In words: Inhibition of miR-4644 in human HeLa cells assessed as increase in luminescence at 4 uM after 24 hrs by luciferase reporter gene assay relative to control. Format: cell-based.
Data set [4] relates to Nucleic Acid. As to the kind of experiment: Inhibition of mature-miR-4644 expression in human HeLa cells at 4 uM after 10 mins by qRT-PCR analysis. Format: cell-based. (Quantitative PCR measures a nucleic acid by following its amplification.)
For data set [5], the system named is MCF7. As to the kind of experiment: Ratio of IC50 for HEK cells to IC50 for human MCF7 cells.
Data set [6] has as its system Drosophila. In words: Down regulation of pri-miR-14 in Drosophila larvae at 50 uM, po by qRT-PCR analysis relative to control. Type of data set: functional, organism-based.
Data set [7] concerns Nucleic Acid. As to the kind of experiment: Inhibition of mature-miR-4644 expression in human MCF7 cells at 4 uM after 10 mins by qRT-PCR analysis. Type of data set: cell-based.
For data set [8], the system named is Nucleic Acid. As to the kind of experiment: Inhibition of Pri-miR-4644 expression in human HeLa cells at 4 uM after 10 mins by qRT-PCR analysis. Format: cell-based.
The test system of data set [9] is Drosophila. As to the kind of experiment: Down regulation of miR-14 in Drosophila larvae at 50 uM, po by qRT-PCR analysis relative to control. Format: functional.
Data set [10] relates to Nucleic Acid. As to the kind of experiment: Inhibition of miR-30A in human HeLa cells assessed as increase in luminescence at 4 uM after 24 hrs by luciferase reporter gene assay relative to control. Type of data set: cell-based.
Data set [11] concerns Drosophila. As to the kind of experiment: Down regulation of mature-miR-14 in Drosophila larvae at 50 uM, po by qRT-PCR analysis relative to control. Type of data set: functional, organism-based.
Data set [12] concerns MCF7. As to the kind of experiment: Cell cycle arrest in human MCF7 cells assessed as accumulation at G2/M phase at 4 uM after 24 hrs using propidium iodide staining by flow cytometry (reference value: 11%). Type of data set: functional. A general note: In flow cytometry, cells or beads pass a laser one at a time.
The subject of data set [13] is Drosophila. As to the kind of experiment: Down regulation of miR-3 in Drosophila larvae at 50 uM, po by qRT-PCR analysis relative to control. Type of data set: functional, organism-based.
The test system of data set [14] is MCF-10A. In words: Cytotoxicity against human MCF10A cells. Type of data set: cell-based.
Data set [15] concerns MCF7. As to the kind of experiment: Ratio of IC50 for human MCF10A cells to IC50 for human MCF7 cells.
Data set [16] can be described thus: Cytotoxicity against HEK cells. Type of data set: cell-based. As to conditions: human, hek293.
Data set [17] deals with Drosophila. As to the kind of experiment: Inhibition of miR-14 in transgenic Drosophila larvae assessed as increase in fluorescence in wing disc at 50 uM, po by EGFP reporter gene assay using confocal microscopy relative to control. Type of data set: functional, organism-based.
For data set [18], the system named is MCF7. As to the kind of experiment: Cell cycle arrest in human MCF7 cells assessed as accumulation at S phase at 4 uM after 24 hrs using propidium iodide staining by flow cytometry (reference value: 9%). Format: functional.
Data set [19] concerns MCF7. As to the kind of experiment: Cell cycle arrest in human MCF7 cells assessed as accumulation at G0/G1 phase at 4 uM after 24 hrs using propidium iodide staining by flow cytometry (reference value: 79%). Format: functional.
The subject of data set [20] is Nucleic Acid. In words: Inhibition of pri-miR-4644 expression in human MCF7 cells at 4 uM after 10 mins by qRT-PCR analysis. Type of data set: cell-based.
The subject of data set [21] is Nucleic Acid. In words: Inhibition of miR14 in Drosophila melanogaster S2 cells at 4 uM after 24 hrs by luciferase reporter gene assay. Type of data set: cell-based.
In data set [22] the test system is Drosophila. As to the kind of experiment: Inhibition of miR-14 in transgenic Drosophila larvae expressing EGFP assessed as increase in EGFP protein expression in wing disc at 50 uM, po by Western blot analysis relative to control. Format: functional, organism-based.
Data set [23] deals with Nucleic Acid. In words: Inhibition of miR-4644 in human MCF7 cells assessed as increase in luminescence at 4 uM after 24 hrs by luciferase reporter gene assay relative to control. Type of data set: cell-based.

Calls of active or inactive are those of the source. No cut-off for these calls is given here.

Results on nine compounds are retold here after ChEMBL document CHEMBL1938245, “aza-Flavanones as potent cross-species microRNA inhibitors that arrest cell cycle” (Bioorg Med Chem Lett, 2012).

The term inhibition denotes how much of the control response was suppressed. Take `CC(=O)Oc1ccc(C2CC(=O)c3ccccc3N2)c(OC(C)=O)c1` (stereo unspecified): the inhibition in data set [1] came out at 21%; in [2] it was 56%.
In the case of `Cc1cc(C)c(C2CC(=O)c3ccccc3N2)c(C)c1` (stereo unspecified), the inhibition in [1] was found to be 21%; in data set [2] it was 56%.
As for `O=C1CC(c2ccc(Br)cc2)Nc2ccccc21` (stereo unspecified), the fold change (FC) in data set [3] worked out at 3; in [9], 5; in data set [23], 3. Moreover, the inhibition in data set [4], in [7], in data set [8] and in data set [20] was 20% in each case. The “Ratio IC50” value is given as 2 in data set [5] and 3 in [15]. The result in data set [6] and in data set [11] was Active. Besides, the inhibition result in data set [10] is “inactive”. Also, the Activity in data set [12] is on record as 7%; in [14], “Non-toxic”; in data set [16] it was “Non-toxic”; in data set [18], 9%; in data set [19], 83%. Besides, the result in data set [13] was inactive. For the same compound, the inhibition result in data set [17], in data set [21] and in data set [22] was “Active” throughout.
In the case of `O=C1CC(c2ccc(-c3ccoc3)cc2)Nc2ccccc21` (stereo unspecified), the inhibition worked out at 21% in data set [1] and 56% in data set [2].
On to `O=C1CC(c2ccc(O)cc2O)Nc2ccccc21` (stereo unspecified), for which the fold change (FC) was 3 in data set [3], 5 in data set [9] and 3 in data set [23]. Also, the inhibition in data set [4], in [7], in data set [8] and in data set [20] was 20% each time. For the same compound, the “Ratio IC50” value in [5] came to 2; in [15], 3. In addition, the outcome in data set [6] and in [11] was Active. In addition, the inhibition entry in data set [10] was “inactive”. Also, the Activity in data set [12] is recorded as 7%; in data set [14] it was “Non-toxic”; in [16], “Non-toxic”; in data set [18], 8%; in [19], 85%. In addition, the result in data set [13] was inactive. Besides, the inhibition entry in data set [17], in data set [21] and in data set [22] was “Active” each time.
Consider `Cc1ccc(S(=O)(=O)Oc2ccc(C3CC(=O)c4ccccc4N3)c(OS(=O)(=O)c3ccc(C)cc3)c2)cc1` (stereo unspecified), for which the figures for the inhibition in [1] and in data set [2] were 21% and 56%, respectively.
With `COc1ccc(C2CC(=O)c3ccccc3N2)cc1` (stereo unspecified), the inhibition entry in data set [3] and in [23] was “inactive” in each case.
On to `O=C1CC(c2ccccc2)Nc2ccccc21` (stereo unspecified), for which the inhibition result in data set [3] and in data set [23] was “inactive” throughout.
For `O=C1CC(c2c[nH]c3ccccc23)Nc2ccccc21` (stereo unspecified), the inhibition worked out at 21% in data set [1] and 56% in [2].
